# Data published in US20220259558A1, “METHODS FOR OBTAINING EYE FIELD PROGENITOR CELLS FROM HUMAN PLURIPOTENT STEM CELLS” (Novo Nordisk A/S, priority 2019, published 2022).
# B1: BMP4: member of the BMP family compared to BMP5 (protein, UniProt P12644 293-408, looked up)
# Bone morphogenetic protein 4: SPKHHSQRARKKNKNCRRHSLYVDFSDVGWNDWIVAPPGYQAFYCHGDCPFPLADHLNSTNHAIVQTLVNSVNSSIPKACCVPTELSAISMLYLDEYDKVVLKNYQEMVVEGCGCR
# B2: DKK2: Dickkopf WNT Signaling Pathway Inhibitor 2, recombinant protein (protein, UniProt Q9UBU2 34-259, looked up)
# Dickkopf-related protein 2: KLNSIKSSLGGETPGQAANRSAGMYQGLAFGGSKKGKNLGQAYPCSSDKECEVGRYCHSPHQGSSACMVCRRKKKRCHRDGMCCPSTRCNNGICIPVTESILTPHIPALDGTRHRDRNHGHYSNHDLGWQNLGRPHTKMSHIKGHEGDPCLRSSDCIEGFCCARHFWTKICKPVLHQGEVCTKQRKKGSHGLEIFQRCDCAKGLSCKVWKDATYSSKARLHVCQKI
# B3: Activin A: Recombinant protein (R&D systems/Peprotech) (protein, UniProt P08476 311-426, looked up)
# Inhibin beta A chain: GLECDGKVNICCKKQFFVSFKDIGWNDWIIAPSGYHANYCEGECPSHIAGTSGSSLSFHSTVINHYRMRGHSPFANLKSCCVPTKLRPMSMLYYDDGQNIIKKDIQNMIVEECGCS
# modifications: Inhibin beta A chain
# B4: BMP7: member of the BMP family compared to BMP5 (protein, UniProt P18075 293-431, looked up)
# Bone morphogenetic protein 7: STGSKQRSQNRSKTPKNQEALRMANVAENSSSDQRQACKKHELYVSFRDLGWQDWIIAPEGYAAYYCEGECAFPLNSYMNATNHAIVQTLVHFINPETVPKPCCAPTQLNAISVLYFDDSSNVILKKYRNMVVRACGCH
# How the values were obtained:
# [1] = test system: hESC; assay: RNA (gene) expression analysis of differentiated hESC, real-time PCR; assay type: cell-based, human; conditions: for induction of gene expression of markers of eye field progenitor cells with a RPE progenitor cell identity: comparison of BMPs, day 7-21, with CHIR99021 day 12-21, single SMAD inhibition
# Protocol: The graphs indicate the cycle threshold (CT) values from real-time polymerase chain reaction (PCR). Differentiated cells with BMP5 are collected at day 21 and RNA extracted, converted to cDNA and RNA expression analyses performed. hESC are used as comparison and CT values are inversely proportional to mRNA level.
# RNA expression of RPE progenitor cell-related genes was quantified. Note that 200 ng/ml and 1000 ng/ml of BMP5 treatment promote the expression of RPE progenitor genes.
# RNA expression of neural retina progenitor genes was quantified. 200 ng/ml and 1000 ng/ml of BMP5 treatment promote the expression of neural retina progenitor cell genes.
# The effect of BMP5 is compared to that of BMP4, BMP7 and BMP4/7 heterodimer.
# (§1) hESC-RPE monolayer differentiation hESC were plated at a cell density of 5.5×10^4 cells/cm2 on hrLN-332 laminin coated dishes at 10 μg/mL (Biolaminin 332 LN, Biolamina) using NutriStem hPSC XF medium. Rho-kinase inhibitor (Y-27632, Millipore) at a concentration of 10 μM was added during the first 24 hours, while cells were kept at 37° C., 5% CO2. After 24 hours, the culture medium was replaced with differentiation medium according to the examples. The differentiation media “GMEM” in the following examples is always supplemented with Penicillin-Streptomycin solution (20 units/ml; Thermo Fisher), beta-Mercaptoethanol (0.5 mM; Thermo Fisher), Sodium pyruvate (1 mM; Thermo Fisher), Non-Essential Amino Acids (1×; Thermo Fisher).
# We analyzed gene expression at day 21 on cells that were generated with the following protocol, […]
# [2] = test system: hESC; assay: Protein expression of hESC-derived progenitor cells by flow cytometry; assay type: cell-based, human; conditions: after 21 days, single SMAD inhibitor (GW788388)
# Protocol: More than 40% of the cells show co-expression of the markers PAX6/MITF.
# More than 50% of the cells show co-expression of the markers PAX6/VSX2.
# as §1
# In order to provide quantitative data of the cells generated with our BMP5-based protocol, we analysed the eye field progenitor cells generated under treatment with BMP5 for NR progenitor cells or with BMP5 and CHIR99021 for RPE progenitor cells by flow cytometry. Moreover, we tested single SMAD inhibition by removing NOGGIN from the protocol.
# [3] = test system: hESC; assay: Differentiation of hESC into eye field progenitor cells, marker-positive cells by immunofluorescence; assay type: cell-based, human
# From the text: FIGS. 2A and 2B show the effect of human BMP5 and Activin A on the differentiation of hESC into VSX2 and MITF positive cells. Immunofluorescence showing conditions 1 and 2, without BMP5 or Activin A, with poor levels of MITF or VSX2. In contrast, the addition of BMP5 from day 12 (conditions 3 and 4), increase the number of cells positive for MITF and VSX2. The addition of Activin A from day 15, in combination with BMP5, has no clear additional effect. In contrast, the use of Activin A alone from day 12, or combination with BMP5 from day 15 (conditions 5 and 6), generates a lower number of cells positive for MITF and VSX2. […] The combination of IHH (Indian Hedgehog) and DKK2 (Dickkopf WNT Signaling Pathway Inhibitor 2) might help in the generation of MITF/VSX2 positive cells.
# An initial treatment with the small molecule GW788388, NOGGIN and Endo IWR1 for 12 days, followed by a treatment with BMP5, IHH and DKK2 generates high numbers of PAX6/OTX2 double positive cells addressed by immunofluorescence. DAPI is used for nuclear staining of all cells.
# The use of BMP5 induces the generation of MITF and VSX2 positive cells (second row), addressed by immunofluorescence, indicating the generation of neural retina progenitor cells. In contrast, the addition of the GSK3 inhibitor CHIR99021 (lower row) drastically blocks the expression of VSX2, and reinforces the expression of MITF and the generation of MITF positive cells with cobblestone morphology. This is indicative of RPE progenitor cells. First row, control without BMP5. DAPI is used for nuclear staining of all cells.
# as §1
# In order to differentiate hESC into eye progenitor cells, we tested the effect of BMP5 in different conditions in combination with small molecules and recombinant proteins that mimics developmental cues. We relied on sequential activation and/or repression of the common developmental pathways associated to eye development for our differentiation protocol and combined with activation of BMP pathway by BMP5. After cell dissociation, hESC line expanded on LN-521 were dissociated to single cells and seeded on LN-332 for differentiation. These cells adapted well to this laminin.
# We decided to explore the inhibition of GSK3 with the small molecule CHIR99021 in combination with BMP5, and to remove the WNT inhibitor Endo IWR1 from the protocol, as GSK3 inhibition might activate canonical (beta-Catenin dependent) WNT signalling.
# We decided to explore the effect of another SMAD inhibitor, RepSOX, in combination with NOGGIN, and to combine with BMP5 and CHIR99021 to obtain RPE progenitor cells positive for MITF. This will indicate if different SMAD inhibitors could be used in our BMP5-based protocol.
# [4] = test system: human embryonic stem cells (hESC); assay: Initial attachment of hESC on different laminins after single cell seeding (brightfield); assay type: cell-based; conditions: after 12 hours; hESC grown and maintained on LN-521, single cell seeding
# Protocol: LN-332 can be used for further differentiation.
# An internally generated hESC line was maintained on human recombinant laminin (hrLN) coated plates (Biolaminin 521 LN, Biolamina) in NutriStem hPSC XF medium (Biological Industries), in a 5% CO2 incubator at 37° C. and passaged enzymatically at 1:10-1:20 ratio every 3-5 days. For passaging, confluent cultures were washed once with phosphate buffered saline (PBS) without calcium and magnesium ions and incubated for 5 min at 37° C. with TrypLE Select (GIBCO, Thermo Fisher Scientific). The enzyme was then carefully removed and the cells were collected in fresh NutriStem hPSC XF medium by gentle pipetting to obtain single cell suspension and the required volume plated on a freshly hrLN-521 coated dish. After passage, the medium was replaced with fresh prewarmed NutriStem hPSC XF medium and changed daily.
# hESC-RPE monolayer differentiation hESC were plated at a cell density of 5.5×10^4 cells/cm2 on hrLN-332 laminin coated dishes at 10 μg/mL (Biolaminin 332 LN, Biolamina) using NutriStem hPSC XF medium. Rho-kinase inhibitor (Y-27632, Millipore) at a concentration of 10 μM was added during the first 24 hours, while cells were kept at 37° C., 5% CO2. After 24 hours, the culture medium was replaced with differentiation medium according to the examples. […]
# [5] = Example 1, immunofluorescence, factor from day 12 after NOGGIN+GW788388+Endo IWR1, to day 21
molecule,measurement,setting,value
"BMP5: human bone morphogenetic protein 5, recombinant protein (R&D systems), SEQ ID NO: 1",best condition (BMP5 concentration) to induce eye field progenitor cells with a RPE progenitor cell identity,"[1]; 0, 0.1, 200 and 1000 ng/ml tested, day 7-21, with CHIR99021 day 12-21, gene expression day 21",200 ng/mL
same,best condition (BMP5 concentration) to generate eye field progenitor cells with a NR progenitor cell identity,"[1]; 0, 0.1, 200 and 1000 ng/ml tested, day 7-21, VSX2 gene expression day 21",200 ng/mL
same,effect on generation of eye field progenitor cells,[1]; BMP5 at 1000 ng/ml,positive but milder effect
same,induction of gene expression of markers of eye field progenitor cells with a RPE progenitor cell identity,[1],superior effect
same,"MITF, PAX6 and VSX2 mRNA levels","[1]; day 21, CT values, compared to hESC",increased compared to hESC
same,PAX6-positive cells,[2],more than 95%
same,double positive cells PAX6/VSX2,[2],more than 50%
same,generation of MITF and VSX2-positive cells,[3]; [5],generated MITF and VSX2-positive cells
same,generation of MITF and VSX2-positive cells,"[3]; Example 2, dual SMAD inhibition (NOGGIN+GW788388), BMP5 from day 7 to day 21",strongly generated MITF and VSX2-positive cells
same,generation of double PAX6/OTX2 positive cells,"[3]; immunofluorescence, GW788388, NOGGIN and Endo IWR1 for 12 days, then BMP5, IHH and DKK2",induces the generation of double PAX6/OTX2 positive cells
"LN-332: human recombinant laminin isoform 332 (Biolaminin 332 LN, Biolamina), coating matrix",initial attachment of hESC,[4],excellent attachment
B1,induction of gene expression of markers of eye field progenitor cells with a RPE progenitor cell identity,[1],least capacity to induce these markers
B2,generation of MITF and VSX2-positive cells,[3]; [5],not sufficient to generate MITF or VSX2-positive cells
B3,generation of MITF and VSX2-positive cells,[3]; [5],negative effect
B4,induction of gene expression of markers of eye field progenitor cells with a RPE progenitor cell identity,[1],better than BMP4
